Test results published in publication PMC9287172, “Molecular basis for the regulation of human glycogen synthase by phosphorylation and glucose-6-phosphate” (Nature Structural & Molecular Biology, 2022).

B2: human glycogen synthase GYS1 (aa 1–737), untagged, as in the GYS1–GYG1^ΔCD complex (enzyme, UniProt P13807 1-737, looked up)
chain: MPLNRTLSMSSLPGLEDWEDEFDLENAVLFEVAWEVANKVGGIYTVLQTKAKVTGDEWGDNYFLVGPYTEQGVRTQVELLEAPTPALKRTLDSMNSKGCKVYFGRWLIEGGPLVVLLDVGASAWALERWKGELWDTCNIGVPWYDREANDAVLFGFLTTWFLGEFLAQSEEKPHVVAHFHEWLAGVGLCLCRARRLPVATIFTTHATLLGRYLCAGAVDFYNNLENFNVDKEAGERQIYHRYCMERAAAHCAHVFTTVSQITAIEAQHLLKRKPDIVTPNGLNVKKFSAMHEFQNLHAQSKARIQEFVRGHFYGHLDFNLDKTLYFFIAGRYEFSNKGADVFLEALARLNYLLRVNGSEQTVVAFFIMPARTNNFNVETLKGQAVRKQLWDTANTVKEKFGRKLYESLLVGSLPDMNKMLDKEDFTMMKRAIFATQRQSFPPVCTHNMLDDSSDPILTTIRRIGLFNSSADRVKVIFHPEFLSSTSPLLPVDYEEFVRGCHLGVFPSYYEPWGYTPAECTVMGIPSISTNLSGFGCFMEEHIADPSAYGIYILDRRFRSLDDSCSQLTSFLYSFCQQSRRQRIIQRNRTERLSDLLDWKYLGRYYMSARHMALSKAFPEHFTYEPNEADAAQGYRYPRPASVPPSPSLSRHSSPHQSEDEEDPRNGPLEEDGERYDEDEEAAKDRRNIRAPEWPRRASCTSSTSGSKRNSVDTATSSSLSTPSEPLSPTSSLGEERN
modifications: multiply phosphorylated (intact mass spectrometry); phosphorylated Ser641 (site 3a) modelled in the inhibited state
notes: human glycogen synthase GYS1 (muscle isoform), amino acids 1–737, codon-optimized synthetic gene; Homotetramer (dimer of dimers) in the cryo-EM structures; source: Sf9 cells, coexpressed with His6-GST-GYG1 294–350 from a bicistronic construct, purified (Ni-Sepharose, Superose 6)

Tests used:
Glycogen synthase (GYS1) [1] = target: T1, Glycogen synthase (GYS1) (Homo sapiens, UniProt P13807); assay: cryo-EM structure at […] Å with Glc6P and UDP-glc added (UDP-glc hydrolysed); assay type: binding
T1 construct: full-length GYS1 (aa 1–737) coexpressed with GYG1 aa 294–350 (GYS1–GYG1^ΔCD); with GYG1 (aa 294–350)
T1 sequence (P13807 1-737): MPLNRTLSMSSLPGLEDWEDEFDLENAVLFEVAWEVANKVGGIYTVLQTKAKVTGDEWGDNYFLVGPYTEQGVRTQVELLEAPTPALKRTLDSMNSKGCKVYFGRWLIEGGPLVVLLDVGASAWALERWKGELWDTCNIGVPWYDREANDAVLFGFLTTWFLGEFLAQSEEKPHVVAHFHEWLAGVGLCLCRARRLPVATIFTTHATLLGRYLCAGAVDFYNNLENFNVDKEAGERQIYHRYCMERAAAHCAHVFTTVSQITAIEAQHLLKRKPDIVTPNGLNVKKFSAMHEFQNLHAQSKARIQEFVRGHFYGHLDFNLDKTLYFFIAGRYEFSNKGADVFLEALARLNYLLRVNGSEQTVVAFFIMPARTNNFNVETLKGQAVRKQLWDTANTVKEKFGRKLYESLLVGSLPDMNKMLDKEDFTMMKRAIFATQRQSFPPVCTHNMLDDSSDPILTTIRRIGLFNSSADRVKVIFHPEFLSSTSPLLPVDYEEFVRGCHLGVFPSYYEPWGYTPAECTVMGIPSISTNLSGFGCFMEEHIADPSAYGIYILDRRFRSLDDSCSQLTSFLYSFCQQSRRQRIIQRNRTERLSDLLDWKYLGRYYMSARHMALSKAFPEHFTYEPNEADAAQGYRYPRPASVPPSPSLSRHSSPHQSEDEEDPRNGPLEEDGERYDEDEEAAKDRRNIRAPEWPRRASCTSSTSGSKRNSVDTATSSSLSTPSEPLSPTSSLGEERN
T1 sequence (P46976 294-350 partner): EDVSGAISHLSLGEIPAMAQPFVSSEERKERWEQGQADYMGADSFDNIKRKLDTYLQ

Glycogen synthase (GYS1) [2] = target: T1, Glycogen synthase (GYS1); assay: cryo-EM structures (7Q13 […] Å; also 7Q12, 7Q0S); thermal shift titration, AC50 of PP1c-dephosphorylated GYS1–GYG1^ΔCD; assay type: binding
PTG (PPP1R3C) [3] = target: T2, PTG (PPP1R3C) (Homo sapiens, UniProt Q9UQK1); assay: thermal shift assay titration (AC50); assay type: binding
T2 construct: CBM21 domain, aa 134–259
T2 sequence (Q9UQK1 134-259): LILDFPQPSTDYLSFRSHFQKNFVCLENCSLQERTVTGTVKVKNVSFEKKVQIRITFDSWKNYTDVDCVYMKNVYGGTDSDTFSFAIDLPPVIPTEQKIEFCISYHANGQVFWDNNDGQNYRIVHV

PTG (PPP1R3C) [4] = target: T2, PTG (PPP1R3C); assay: thermal shift assay (no Kd); assay type: binding
[5] = target: B2; assay: cryo-EM structure; GYS1–GYG1^ΔCD at 0.75 or 0.5 mg ml^-1 in 25 mM HEPES pH 7.5, 200 mM NaCl, 2.0 mM TCEP, 0.05% Tween-20; as purified (inhibited state), with 5 mM Glc6P (inhibited-like and activated states), with 5 mM Glc6P and 5 mM UDP-Glc (activated state); D2 symmetry; conditions: both partners purified
[6] = target: the molecule itself; assay: as above
[7] = target: T3, GYS1–GYG1^FL complex (full-length human GYS1 with full-length glucosylated GYG1) (human, UniProt P13807 1-737; P46976-1 1-350, heterogeneous phosphorylation | glucosylated (GYG1 is attached with a glucose chain), heterogeneous); assay: pull-down; His-PPP1R3C (1.0 mg ml^-1) preincubated with GYS1–GYG1 complex (0.25 mg ml^-1) or GYG1 (0.5 mg ml^-1) for 30 min at 4 °C, captured on Talon resin in 25 mM HEPES pH 7.5, 100 mM NaCl, 1 mM TCEP, 0.2% Tween-20; wash with 10 mM imidazole; SDS-PAGE, Coomassie; conditions: both partners purified
T3 construct: human glycogen synthase GYS1, full length; human glycogenin-1 (GYG1), isoform GN-1L, UniProt P46976-1, full length; source: Sf9 cells, coexpressed, purified (Ni-Sepharose, Superose 6, TEV treatment); not shown: His6, N-terminal, cleaved
T3 sequence (looked up) 1: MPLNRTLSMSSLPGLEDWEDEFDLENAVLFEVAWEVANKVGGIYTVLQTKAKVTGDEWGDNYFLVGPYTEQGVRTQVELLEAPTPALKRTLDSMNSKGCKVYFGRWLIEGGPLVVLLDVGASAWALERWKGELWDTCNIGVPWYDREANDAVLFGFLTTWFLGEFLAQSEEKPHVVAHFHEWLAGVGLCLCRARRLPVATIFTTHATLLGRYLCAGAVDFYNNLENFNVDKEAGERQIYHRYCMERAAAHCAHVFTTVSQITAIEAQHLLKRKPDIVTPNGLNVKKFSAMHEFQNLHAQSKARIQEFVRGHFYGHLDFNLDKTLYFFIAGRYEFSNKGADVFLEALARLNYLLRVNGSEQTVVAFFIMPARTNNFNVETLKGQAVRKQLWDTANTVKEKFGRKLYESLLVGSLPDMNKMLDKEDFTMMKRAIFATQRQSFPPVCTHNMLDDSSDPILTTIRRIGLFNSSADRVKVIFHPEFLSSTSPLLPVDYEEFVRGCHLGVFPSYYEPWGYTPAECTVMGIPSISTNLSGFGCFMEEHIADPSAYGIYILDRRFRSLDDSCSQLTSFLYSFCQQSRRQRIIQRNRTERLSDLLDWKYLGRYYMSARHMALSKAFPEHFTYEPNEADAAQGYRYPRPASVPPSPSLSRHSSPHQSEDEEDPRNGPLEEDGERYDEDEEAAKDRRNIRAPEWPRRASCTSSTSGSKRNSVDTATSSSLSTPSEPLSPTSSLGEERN
T3 sequence (looked up) 2: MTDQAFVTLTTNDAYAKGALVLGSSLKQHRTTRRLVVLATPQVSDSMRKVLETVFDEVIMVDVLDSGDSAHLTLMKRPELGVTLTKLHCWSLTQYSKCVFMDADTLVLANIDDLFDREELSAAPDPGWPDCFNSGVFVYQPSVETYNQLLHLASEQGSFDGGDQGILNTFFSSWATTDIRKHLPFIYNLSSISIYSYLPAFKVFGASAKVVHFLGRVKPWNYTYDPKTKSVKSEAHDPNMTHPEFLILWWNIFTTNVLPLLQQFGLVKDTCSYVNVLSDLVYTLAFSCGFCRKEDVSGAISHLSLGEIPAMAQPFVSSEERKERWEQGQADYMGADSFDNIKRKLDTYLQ

Molecule: OC[C@H]1OC(O)[C@H](O)[C@@H](O)[C@@H]1O (stereo partly shown) [GLC, glucose]
- cryo-EM structure at 3.0 Å with Glc6P and UDP-glc added (UDP-glc hydrolysed) (Glycogen synthase (GYS1) [1]): The hydrolysed glucose molecule formed multiple hydrogen bonds with the side chains of Arg211, Arg311, Glu510 and Tyr514

Molecule: O=P(O)(O)OC[C@H]1OC(O)[C@H](O)[C@@H](O)[C@@H]1O (stereo partly shown) [Glc6P, glucose-6-phosphate]
- AC50 (Glycogen synthase (GYS1) [2]): 1.5 ± 0.2 mM

Molecule: OC[C@H]1O[C@H](O[C@H]2[C@H](O)[C@@H](O)[C@@H](O[C@H]3[C@H](O)[C@@H](O)[C@@H](O[C@H]4[C@H](O)[C@@H](O)[C@@H](O[C@H]5[C@H](O)[C@@H](O)[C@@H](O[C@H]6[C@H](O)[C@@H](O)[C@@H](O[C@H]7[C@H](O)[C@@H](O)C(O)O[C@@H]7CO)O[C@@H]6CO)O[C@@H]5CO)O[C@@H]4CO)O[C@@H]3CO)O[C@@H]2CO)[C@H](O)[C@@H](O)[C@@H]1O (stereo partly shown) [maltoheptaose]
- AC50 (PTG (PPP1R3C) [3]): 2.4 ± 0.6 mM

Molecule: OC[C@H]1O[C@H](O[C@H]2[C@H](O)[C@@H](O)[C@@H](O[C@H]3[C@H](O)[C@@H](O)[C@@H](O[C@H]4[C@H](O)[C@@H](O)C(O)O[C@@H]4CO)O[C@@H]3CO)O[C@@H]2CO)[C@H](O)[C@@H](O)[C@@H]1O (stereo partly shown) [maltotetraose]
- thermal shift assay (no Kd) (PTG (PPP1R3C) [4]): Glycogen, debranched glycogen, maltotetraose and maltoheptaose increased the thermostability of PTG(CBM21)

B1: human GYG1 C terminus, aa 294–350 (GYG1^ΔCD) (domain or fragment, UniProt P46976-1 294-350, looked up)
chain: EDVSGAISHLSLGEIPAMAQPFVSSEERKERWEQGQADYMGADSFDNIKRKLDTYLQ
notes: human glycogenin-1 (GYG1), isoform GN-1L, UniProt P46976-1, amino acids 294–350, codon-optimized synthetic gene; Residues 317–349 were modelled in the cryo-EM map; The methods name MBP-His6, His6-GST and His6-GFP tags as tried; the results name His6-GST for the bicistronic constructs; also called GYG1 294–350; not shown: His6-GST, N-terminal, cleaved
- stoichiometry N [5]: 1

Molecule: B2
- stoichiometry N [6]: 4

B3: human PTG (PPP1R3C) aa 134–259, CBM21 domain construct, His-tagged (domain or fragment, UniProt Q9UQK1 134-259, looked up)
chain: LILDFPQPSTDYLSFRSHFQKNFVCLENCSLQERTVTGTVKVKNVSFEKKVQIRITFDSWKNYTDVDCVYMKNVYGGTDSDTFSFAIDLPPVIPTEQKIEFCISYHANGQVFWDNNDGQNYRIVHV
notes: The His6-tag is TEV-cleavable but was kept: the protein was captured on Talon resin by it; also called PTG(CBM21); His-PPP1R3C; source: cultured in autoinduction Terrific Broth, purified (Ni-Sepharose, Superdex 75); not shown: His6, N-terminal, kept
- binding result [7]: binds
